Measurements reported in ChEMBL document CHEMBL1201862, “PubChem BioAssay data set” (2004).
Blank lines part the entries; values can stand above or below the compound they belong to. The source made the active and inactive calls.

Key:
[1] = biological target: Cyclin-dependent kinase 2 (Homo sapiens, UniProt P24941); type: functional;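 also: CDK2 measured as one member of a broad kinome profiling panel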
[2] = biological target: Serine/threonine-protein kinase pim-1 (Homo sapiens, UniProt P11309); type: functional
[3] = biological target: Cell division cycle 7-related protein kinase (Homo sapiens, UniProt O00311); type: functional;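 also: value obtained from a kinome-wide kinase panel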
[4] = biological target: Homeodomain-interacting protein kinase 2 (Homo sapiens, UniProt Q9H2X6); type: functional;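 also: measured within a kinome-wide kinase profiling panel, HIPK2 being one panel member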
[5] = biological target: MAP kinase-interacting serine/threonine-protein kinase 2 (Homo sapiens, UniProt Q9HBH9); type: functional
[6] = biological target: Interleukin-1 receptor-associated kinase 4 (Homo sapiens, UniProt Q9NWZ3); type: functional
[7] = biological target: Glycogen synthase kinase-3 beta (Homo sapiens, UniProt P49841); type: functional;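 also: value comes from a broad kinome profiling panel, with GSK3B as the panel member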
[8] = biological target: cAMP-dependent protein kinase catalytic subunit alpha (Homo sapiens, UniProt P17612); type: functional
[9] = biological target: Dual specificity protein kinase CLK4 (Homo sapiens, UniProt Q9HAZ1); type: functional
[10] = biological target: Mitogen-activated protein kinase kinase kinase kinase 4 (Homo sapiens, UniProt O95819); type: functional
[11] = system: CHO-K1; assay: (§1) Counterscreen for antagonists of the orexin 1 receptor (OX1R; HCRTR1): Homogeneous time resolved fluorescence (HTRF)-based cell-based dose response assay to identify antagonists of the parental CHO-K1 cell line. [Related pubchem assays (depositor defined):AID434989, AID435008, AID463079, AID485270, AID492963, AID492964, AID492965, AID493232, AID504699, AID504701]; type: functional; conditions: Cricetulus griseus
[12] = as §1, with “Fluorescence-based” for “Homogeneous time resolved fluorescence (HTRF)-based”, “cell-based high throughput” for “cell-based”, “CHO” for “CHO-K1”; type: functional
[13] = biological target: T1, Orexin/Hypocretin receptor type 1 (Homo sapiens, UniProt O43613); assay: Homogeneous Time Resolved Fluorescence (HTRF)-based cell-based high throughput dose response assay for antagonists of the orexin 1 receptor (OX1R; HCRTR1). [Related pubchem assays (depositor defined):AID434989, AID435008, AID463079, AID485270, AID492963, AID492964, AID492965, AID493232, AID504717, AID504718]; type: functional
[14] = biological target: T1, Orexin/Hypocretin receptor type 1; assay: Fluorescence-based cell-based high throughput dose response assay for antagonists of the orexin 1 receptor (OX1R; HCRTR1). [Related pubchem assays (depositor defined):AID434989, AID435008, AID463079, AID485270, AID492963, AID492964, AID492965, AID493232, AID504717, AID504718]; type: functional
[15] = biological target: T2, Orexin receptor type 2 (Homo sapiens, UniProt O43614); assay: Counterscreen assay for antagonists of the orexin 1 receptor (OX1R; HCRTR1): Fluorescence-based cell-based dose response assay for antagonists of the orexin 2 receptor (OX2R; HCRTR2), run by assay provider.; type: functional
[16] = biological target: T2, Orexin receptor type 2; assay: Counterscreen assay for antagonists of the orexin 1 receptor (OX1R; HCRTR1): Homogeneous Time Resolved Fluorescence (HTRF)-based cell-based dose response assay for antagonists of the orexin 2 receptor (OX2R; HCRTR2), run by assay provider.; type: functional
[17] = biological target: Dual specificity tyrosine-phosphorylation-regulated kinase 1A (Rattus norvegicus, UniProt Q63470); type: biochemical, Homo sapiens
[18] = biological target: Aurora kinase A (Homo sapiens, UniProt O14965); type: functional;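 also: value from the Navigating the Kinome kinase panel profiling, panel entry STK6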
[19] = biological target: Inhibitor of nuclear factor kappa-B kinase subunit beta (Homo sapiens, UniProt O14920); type: functional
[20] = biological target: Protein disulfide-isomerase (Homo sapiens, UniProt P07237); assay: PDI inhibitors, insulin aggregation turbidity, dose response, biochemical, absorbance, cherry-picked samples (AID 602350); type: functional
[21] = biological target: Serine/threonine-protein kinase PLK3 (Homo sapiens, UniProt Q9H4B4); type: functional
[22] = biological target: RAC-gamma serine/threonine-protein kinase (Homo sapiens, UniProt Q9Y243); type: functional
[23] = biological target: ALK tyrosine kinase receptor (Homo sapiens, UniProt Q9UM73); type: functional;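 also: ALK tested as one member of a kinase panel screen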
[24] = biological target: Serine/threonine-protein kinase PLK4 (Homo sapiens, UniProt O00444); type: functional;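 also: PLK4 measured as one member of a kinome-wide kinase profiling panel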
[25] = biological target: Proto-oncogene tyrosine-protein kinase receptor Ret (Homo sapiens, UniProt P07949); type: functional;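 also: measured within a kinome-wide profiling panel, RET as the panel member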
[26] = biological target: Fibroblast growth factor receptor 1 (Homo sapiens, UniProt P11362); type: functional
[27] = biological target: Insulin receptor (Homo sapiens, UniProt P06213); type: functional;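 also: insulin receptor kinase tested as one member of a kinome-wide kinase panel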
[28] = biological target: Serine/threonine-protein kinase pim-3 (Homo sapiens, UniProt Q86V86); type: functional;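 also: value obtained as one member of a broad kinase panel profiling effort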
[29] = biological target: Non-receptor tyrosine-protein kinase TYK2 (Homo sapiens, UniProt P29597); type: functional
[30] = biological target: Hepatocyte growth factor receptor (Homo sapiens, UniProt P08581); type: functional;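 also: kinase panel profiling across the kinome, with MET as the panel member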
[31] = biological target: Receptor-type tyrosine-protein kinase FLT3 (Homo sapiens, UniProt P36888); type: functional;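 also: FLT3 was tested as one member of a kinome-wide kinase panel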
[32] = biological target: Serine/threonine-protein kinase Chk1 (Homo sapiens, UniProt O14757); type: functional;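 also: measured as one member of a kinome-wide kinase profiling panel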
[33] = biological target: Vascular endothelial growth factor receptor 2 (Homo sapiens, UniProt P35968); type: functional
[34] = biological target: Protein-tyrosine kinase 6 (Homo sapiens, UniProt Q13882); type: functional
[35] = biological target: RAC-alpha serine/threonine-protein kinase (Homo sapiens, UniProt P31749); type: functional;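 also: AKT1 affinity measured as one member of a kinome-wide kinase profiling panel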
[36] = biological target: Vascular endothelial growth factor receptor 1 (Homo sapiens, UniProt P17948); type: functional;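 also: measured within a kinome-wide profiling panel, FLT1 as the panel member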
[37] = biological target: Serine/threonine-protein kinase PLK1 (Homo sapiens, UniProt P53350); type: functional;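 also: PLK1 measured as one member of a kinome-wide profiling panel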
[38] = biological target: Macrophage colony-stimulating factor 1 receptor (Homo sapiens, UniProt P07333); type: functional;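 also: value comes from the Navigating the Kinome screening panel, CSF1R member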
[39] = biological target: SRSF protein kinase 1 (Homo sapiens, UniProt Q96SB4); type: functional;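 also: measured as one member of a kinome-wide kinase profiling panel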
[40] = biological target: Casein kinase I isoform delta (Homo sapiens, UniProt P48730); type: functional;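 also: measured as one member (CSNK1D) of a kinome panel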
[41] = biological target: Homeodomain-interacting protein kinase 4 (Homo sapiens, UniProt Q8NE63); type: functional
[42] = biological target: Dual specificity tyrosine-phosphorylation-regulated kinase 1A (Homo sapiens, UniProt Q13627); type: functional;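 also: measured against DYRK1A as one member of a broad kinome profiling panel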

Sequence of Serine/threonine-protein kinase pim-1 (P11309 whole entry): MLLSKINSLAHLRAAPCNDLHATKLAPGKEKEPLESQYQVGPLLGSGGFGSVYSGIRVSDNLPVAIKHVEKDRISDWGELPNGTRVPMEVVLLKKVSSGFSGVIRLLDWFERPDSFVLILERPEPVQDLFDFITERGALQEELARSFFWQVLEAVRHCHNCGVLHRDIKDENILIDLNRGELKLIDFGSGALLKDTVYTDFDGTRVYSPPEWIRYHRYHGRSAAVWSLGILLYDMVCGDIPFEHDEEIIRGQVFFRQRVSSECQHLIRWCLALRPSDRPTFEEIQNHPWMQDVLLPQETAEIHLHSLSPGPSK
T1 sequence (O43613 whole entry): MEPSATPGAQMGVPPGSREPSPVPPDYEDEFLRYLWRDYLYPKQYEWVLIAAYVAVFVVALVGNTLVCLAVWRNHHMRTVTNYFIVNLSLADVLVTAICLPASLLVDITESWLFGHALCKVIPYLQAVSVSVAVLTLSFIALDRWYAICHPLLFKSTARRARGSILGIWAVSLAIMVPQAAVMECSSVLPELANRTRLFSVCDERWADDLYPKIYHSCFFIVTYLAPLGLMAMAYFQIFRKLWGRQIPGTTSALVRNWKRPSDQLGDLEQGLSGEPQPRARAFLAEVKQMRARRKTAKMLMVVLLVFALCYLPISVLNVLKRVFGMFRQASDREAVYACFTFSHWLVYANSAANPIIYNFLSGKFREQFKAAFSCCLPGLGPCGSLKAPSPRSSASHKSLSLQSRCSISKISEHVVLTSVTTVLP
T2 sequence (O43614 whole entry): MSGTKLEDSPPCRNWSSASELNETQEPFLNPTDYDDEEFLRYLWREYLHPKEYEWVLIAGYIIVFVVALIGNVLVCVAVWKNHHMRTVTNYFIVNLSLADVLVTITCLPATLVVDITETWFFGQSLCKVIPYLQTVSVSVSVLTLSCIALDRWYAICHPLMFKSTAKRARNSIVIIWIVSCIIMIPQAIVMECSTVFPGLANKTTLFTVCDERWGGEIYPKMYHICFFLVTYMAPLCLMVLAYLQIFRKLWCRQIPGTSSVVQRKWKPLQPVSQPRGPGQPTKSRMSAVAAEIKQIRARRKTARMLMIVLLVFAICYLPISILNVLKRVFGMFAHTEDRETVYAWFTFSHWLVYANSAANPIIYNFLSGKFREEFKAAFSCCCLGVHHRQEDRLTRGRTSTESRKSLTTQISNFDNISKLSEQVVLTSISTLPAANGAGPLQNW
Sequence of Dual specificity protein kinase CLK4 (Q9HAZ1 whole entry): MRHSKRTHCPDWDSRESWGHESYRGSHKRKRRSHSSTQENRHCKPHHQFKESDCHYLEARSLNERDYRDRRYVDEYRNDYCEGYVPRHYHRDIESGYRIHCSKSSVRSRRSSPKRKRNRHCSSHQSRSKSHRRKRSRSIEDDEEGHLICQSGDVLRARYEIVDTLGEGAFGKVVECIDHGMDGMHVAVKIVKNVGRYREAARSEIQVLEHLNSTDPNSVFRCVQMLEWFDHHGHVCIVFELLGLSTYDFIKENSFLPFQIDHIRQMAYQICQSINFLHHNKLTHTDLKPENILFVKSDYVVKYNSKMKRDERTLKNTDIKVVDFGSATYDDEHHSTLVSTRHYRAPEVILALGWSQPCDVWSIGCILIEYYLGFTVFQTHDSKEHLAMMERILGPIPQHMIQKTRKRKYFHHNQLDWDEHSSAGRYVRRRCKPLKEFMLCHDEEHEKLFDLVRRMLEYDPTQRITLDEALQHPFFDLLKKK
Sequence of Protein disulfide-isomerase (P07237 whole entry): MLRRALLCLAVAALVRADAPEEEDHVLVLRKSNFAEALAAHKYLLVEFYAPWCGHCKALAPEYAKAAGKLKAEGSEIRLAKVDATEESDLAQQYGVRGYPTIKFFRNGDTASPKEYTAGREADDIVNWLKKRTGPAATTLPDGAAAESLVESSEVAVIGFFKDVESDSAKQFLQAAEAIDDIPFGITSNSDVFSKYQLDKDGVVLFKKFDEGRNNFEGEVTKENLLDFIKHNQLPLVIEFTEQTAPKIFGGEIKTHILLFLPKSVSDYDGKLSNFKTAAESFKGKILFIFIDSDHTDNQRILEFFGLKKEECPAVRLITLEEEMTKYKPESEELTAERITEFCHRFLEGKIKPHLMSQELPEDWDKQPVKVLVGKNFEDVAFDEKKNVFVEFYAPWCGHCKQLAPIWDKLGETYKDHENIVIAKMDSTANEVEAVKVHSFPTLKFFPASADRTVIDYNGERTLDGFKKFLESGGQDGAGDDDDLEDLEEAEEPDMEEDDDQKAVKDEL
Sequence of Vascular endothelial growth factor receptor 2 (P35968 whole entry): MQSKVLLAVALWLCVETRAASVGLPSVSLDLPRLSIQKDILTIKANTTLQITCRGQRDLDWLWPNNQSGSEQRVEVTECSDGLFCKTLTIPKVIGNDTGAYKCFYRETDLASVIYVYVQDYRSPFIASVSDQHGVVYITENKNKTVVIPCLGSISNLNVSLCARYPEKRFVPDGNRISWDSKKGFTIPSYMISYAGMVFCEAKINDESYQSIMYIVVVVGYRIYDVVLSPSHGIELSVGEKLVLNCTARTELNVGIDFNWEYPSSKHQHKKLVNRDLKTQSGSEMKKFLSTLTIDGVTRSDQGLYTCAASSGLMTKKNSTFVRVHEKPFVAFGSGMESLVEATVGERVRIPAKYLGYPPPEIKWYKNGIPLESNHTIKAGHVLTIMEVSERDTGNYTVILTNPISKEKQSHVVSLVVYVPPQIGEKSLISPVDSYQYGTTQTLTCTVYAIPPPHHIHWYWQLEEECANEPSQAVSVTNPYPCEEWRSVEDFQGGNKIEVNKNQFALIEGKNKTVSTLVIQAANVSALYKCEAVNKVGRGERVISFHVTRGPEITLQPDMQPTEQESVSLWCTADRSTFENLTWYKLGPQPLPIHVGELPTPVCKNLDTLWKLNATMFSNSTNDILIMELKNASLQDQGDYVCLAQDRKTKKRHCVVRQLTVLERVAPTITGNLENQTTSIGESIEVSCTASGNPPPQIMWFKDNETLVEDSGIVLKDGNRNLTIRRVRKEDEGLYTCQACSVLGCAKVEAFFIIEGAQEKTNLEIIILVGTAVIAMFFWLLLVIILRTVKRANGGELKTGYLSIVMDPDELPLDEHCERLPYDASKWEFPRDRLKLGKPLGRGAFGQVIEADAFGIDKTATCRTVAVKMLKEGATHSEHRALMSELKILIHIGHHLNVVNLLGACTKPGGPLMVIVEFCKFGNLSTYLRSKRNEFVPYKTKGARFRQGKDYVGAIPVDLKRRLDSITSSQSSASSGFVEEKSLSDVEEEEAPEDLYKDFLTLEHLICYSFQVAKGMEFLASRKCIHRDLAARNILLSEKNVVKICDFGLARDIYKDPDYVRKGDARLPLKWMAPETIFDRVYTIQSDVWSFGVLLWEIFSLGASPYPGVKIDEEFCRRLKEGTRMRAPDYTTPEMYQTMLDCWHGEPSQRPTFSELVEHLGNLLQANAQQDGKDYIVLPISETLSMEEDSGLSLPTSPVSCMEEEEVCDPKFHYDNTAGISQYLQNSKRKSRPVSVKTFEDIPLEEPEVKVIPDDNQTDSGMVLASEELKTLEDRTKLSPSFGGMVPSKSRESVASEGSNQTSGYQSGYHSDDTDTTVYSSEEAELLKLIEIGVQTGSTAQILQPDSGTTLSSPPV
Sequence of Serine/threonine-protein kinase PLK1 (P53350 whole entry): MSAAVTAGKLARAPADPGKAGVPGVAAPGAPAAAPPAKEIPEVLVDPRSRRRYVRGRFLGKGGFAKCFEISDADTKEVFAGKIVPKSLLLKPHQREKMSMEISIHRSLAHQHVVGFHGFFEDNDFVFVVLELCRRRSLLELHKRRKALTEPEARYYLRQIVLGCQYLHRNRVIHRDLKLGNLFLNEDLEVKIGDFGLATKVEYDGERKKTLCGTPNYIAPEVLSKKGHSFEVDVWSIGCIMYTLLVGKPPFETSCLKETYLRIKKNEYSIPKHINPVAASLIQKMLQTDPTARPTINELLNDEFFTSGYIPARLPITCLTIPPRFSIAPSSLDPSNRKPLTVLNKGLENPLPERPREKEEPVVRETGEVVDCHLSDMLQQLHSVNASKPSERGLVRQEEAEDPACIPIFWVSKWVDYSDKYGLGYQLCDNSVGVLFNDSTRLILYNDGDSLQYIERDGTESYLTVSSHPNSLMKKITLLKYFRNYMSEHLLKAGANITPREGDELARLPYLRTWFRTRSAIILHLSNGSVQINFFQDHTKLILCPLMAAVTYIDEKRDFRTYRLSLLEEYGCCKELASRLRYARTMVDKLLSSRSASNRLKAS
Sequence of Protein-tyrosine kinase 6 (Q13882 whole entry): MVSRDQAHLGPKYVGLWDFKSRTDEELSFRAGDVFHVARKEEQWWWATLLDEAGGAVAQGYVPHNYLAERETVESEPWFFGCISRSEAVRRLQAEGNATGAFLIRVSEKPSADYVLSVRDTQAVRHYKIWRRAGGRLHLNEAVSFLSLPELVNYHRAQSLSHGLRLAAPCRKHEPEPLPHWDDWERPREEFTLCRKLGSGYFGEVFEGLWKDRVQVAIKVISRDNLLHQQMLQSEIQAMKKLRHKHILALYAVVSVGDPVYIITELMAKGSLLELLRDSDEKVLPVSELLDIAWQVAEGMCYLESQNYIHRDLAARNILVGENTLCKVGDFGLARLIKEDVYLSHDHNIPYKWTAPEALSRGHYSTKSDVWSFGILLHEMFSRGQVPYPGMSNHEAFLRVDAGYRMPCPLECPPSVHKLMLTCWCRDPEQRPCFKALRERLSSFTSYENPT
Sequence of Glycogen synthase kinase-3 beta (P49841 whole entry): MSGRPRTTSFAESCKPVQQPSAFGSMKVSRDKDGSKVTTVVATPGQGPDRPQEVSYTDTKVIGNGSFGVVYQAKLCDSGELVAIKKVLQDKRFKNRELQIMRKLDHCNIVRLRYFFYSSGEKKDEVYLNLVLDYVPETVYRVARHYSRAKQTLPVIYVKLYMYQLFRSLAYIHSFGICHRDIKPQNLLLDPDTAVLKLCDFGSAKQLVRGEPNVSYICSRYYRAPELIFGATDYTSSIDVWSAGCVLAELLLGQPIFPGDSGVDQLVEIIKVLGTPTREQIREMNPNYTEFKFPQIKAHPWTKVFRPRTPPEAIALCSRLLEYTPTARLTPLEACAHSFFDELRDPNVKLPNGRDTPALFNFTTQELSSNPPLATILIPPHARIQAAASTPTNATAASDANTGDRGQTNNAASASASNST

Ki [1]: > 7.94 µM (inactive)
Ki [2]: 0.794 µM (active)
Ki [3]: 0.02 µM (active)
Ki [4]: 2 µM (active)
Ki [5]: > 10 µM (inactive)
Ki [6]: > 10 µM (inactive)
Ki [7]: 0.631 µM (active)
Ki [8]: > 7.94 µM (inactive)
Ki [9]: 1.26 µM (active)
Ki [10]: 5.01 µM (active)
Compound: Cc1sc2[nH]c(=O)n3nc(-c4ccncc4)nc3c2c1C

Compound: Cc1ccc(NC2=NC(=O)/C(=C/c3cccn3C)S2)cc1C
IC50 [11]: > 66.2 µM (inactive)
IC50 [12]: > 49.7 µM (inactive)
IC50 [13]: 2.2 µM (active)
IC50 [14]: 2.24 µM (active)
IC50 [15]: > 88.8 µM (inactive)
IC50 [16]: > 50 µM (inactive)

Compound: c1ccc2c(c1)[nH]c1cnccc12 [NORHARMANE]
AC50 [17]: 8.75 µM (active)
Ki [2]: 6.31 µM (active)
Ki [18]: 15.8 µM (active)
Ki [19]: 7.94 µM (active)

AC50 [20]: 19.5 µM (active)
Compound: CC(C)Sc1nnc([C@H](Cc2c[nH]c3ccccc23)NC(=O)OC(C)(C)C)o1

Ki [21]: > 79.4 µM (inactive)
Ki [22]: > 100 µM (inactive)
Ki [23]: 12.6 µM (active)
Ki [24]: > 39.8 µM (inactive)
Ki [25]: 10 µM (active)
Ki [2]: 10 µM (active)
Ki [26]: 10 µM (active)
Ki [27]: > 50.1 µM (inactive)
Ki [28]: 12.6 µM (active)
Ki [29]: > 20 µM (inactive)
Ki [30]: > 31.6 µM (inactive)
Ki [31]: 5.01 µM (active)
Ki [32]: > 79.4 µM (inactive)
Ki [33]: 15.8 µM (active)
Ki [34]: > 25.1 µM (inactive)
Ki [35]: > 79.4 µM (inactive)
Ki [36]: 2 µM (active)
Ki [37]: > 79.4 µM (inactive)
Ki [38]: > 25.1 µM (inactive)
Compound: Nc1nnc2ccc(-c3ccccc3)cn12

Ki [39]: 6.31 µM (active)
Ki [40]: 2.51 µM (active)
Ki [41]: 2 µM (active)
Ki [9]: 2.51 µM (active)
Ki [42]: 3.16 µM (active)
Compound: CC(C)n1cnc2c(NCc3ccccc3)nc(NCCO)nc21
